Measured values: ChEMBL document CHEMBL1201862, “PubChem BioAssay data set” (2004)
Activity calls are given as the source filed them.

How the values were obtained:
[1] = target: T1, Nucleotide-binding oligomerization domain-containing protein 1 (Homo sapiens, UniProt Q9Y239); experiment: NOD1 signaling inhibitors, SAR follow-up, revised (AID 2333); type: functional
T1 sequence (Q9Y239 whole entry): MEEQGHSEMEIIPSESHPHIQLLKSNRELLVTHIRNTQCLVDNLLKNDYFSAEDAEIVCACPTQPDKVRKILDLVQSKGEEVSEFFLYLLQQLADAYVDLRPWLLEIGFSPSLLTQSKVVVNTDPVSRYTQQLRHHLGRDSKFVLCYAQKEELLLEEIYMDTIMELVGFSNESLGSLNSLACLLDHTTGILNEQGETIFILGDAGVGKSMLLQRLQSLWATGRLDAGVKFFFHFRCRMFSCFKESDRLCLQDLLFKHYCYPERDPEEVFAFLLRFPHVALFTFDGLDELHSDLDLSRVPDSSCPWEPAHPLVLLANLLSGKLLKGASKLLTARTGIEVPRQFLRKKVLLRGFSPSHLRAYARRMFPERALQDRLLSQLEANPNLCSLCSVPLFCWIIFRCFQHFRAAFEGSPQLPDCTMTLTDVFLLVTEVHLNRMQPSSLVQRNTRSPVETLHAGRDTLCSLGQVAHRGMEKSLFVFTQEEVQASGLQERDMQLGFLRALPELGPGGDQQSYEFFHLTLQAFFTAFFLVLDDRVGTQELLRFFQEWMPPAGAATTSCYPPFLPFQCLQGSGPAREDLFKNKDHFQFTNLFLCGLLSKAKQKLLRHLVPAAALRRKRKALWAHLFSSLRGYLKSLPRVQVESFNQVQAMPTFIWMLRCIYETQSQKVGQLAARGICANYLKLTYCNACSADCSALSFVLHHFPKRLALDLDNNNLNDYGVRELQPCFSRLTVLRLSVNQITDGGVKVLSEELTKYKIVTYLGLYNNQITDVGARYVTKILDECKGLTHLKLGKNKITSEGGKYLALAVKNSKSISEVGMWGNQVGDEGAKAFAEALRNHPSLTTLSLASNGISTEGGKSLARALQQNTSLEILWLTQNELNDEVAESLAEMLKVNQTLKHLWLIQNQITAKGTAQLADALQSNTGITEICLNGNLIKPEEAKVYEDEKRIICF

HEK293 = experiment: cells; settings: Homo sapiens;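 note: cells exposed to compound for 14 hours overnight before viability readout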
Tumor necrosis factor = Tumor necrosis factor (Homo sapiens, UniProt P01375); experiment: TNFa-triggered NF-kB activation inhibitors, SAR follow-up, cell-based, revised (AID 2337); type: functional
Sequence of Tumor necrosis factor (P01375 whole entry): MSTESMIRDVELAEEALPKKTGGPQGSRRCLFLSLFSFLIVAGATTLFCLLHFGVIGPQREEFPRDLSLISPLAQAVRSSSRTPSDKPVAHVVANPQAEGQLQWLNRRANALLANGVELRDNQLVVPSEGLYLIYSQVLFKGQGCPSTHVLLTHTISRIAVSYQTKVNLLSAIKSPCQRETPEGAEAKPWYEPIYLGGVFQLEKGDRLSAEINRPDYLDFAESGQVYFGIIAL

[2] = target: T2, E3 ubiquitin-protein ligase XIAP (Homo sapiens, UniProt P98170); experiment: Counter Screen using XIAP-Bir3 for Chemical Antagonists of Bir1/2 domains of IAP-family anti-apoptotic proteins. [Related pubchem assays (depositor defined):AID1018, AID1449, AID1514, AID1638, AID1749, AID1750, AID488957, AID488963]
T2 sequence (P98170 whole entry): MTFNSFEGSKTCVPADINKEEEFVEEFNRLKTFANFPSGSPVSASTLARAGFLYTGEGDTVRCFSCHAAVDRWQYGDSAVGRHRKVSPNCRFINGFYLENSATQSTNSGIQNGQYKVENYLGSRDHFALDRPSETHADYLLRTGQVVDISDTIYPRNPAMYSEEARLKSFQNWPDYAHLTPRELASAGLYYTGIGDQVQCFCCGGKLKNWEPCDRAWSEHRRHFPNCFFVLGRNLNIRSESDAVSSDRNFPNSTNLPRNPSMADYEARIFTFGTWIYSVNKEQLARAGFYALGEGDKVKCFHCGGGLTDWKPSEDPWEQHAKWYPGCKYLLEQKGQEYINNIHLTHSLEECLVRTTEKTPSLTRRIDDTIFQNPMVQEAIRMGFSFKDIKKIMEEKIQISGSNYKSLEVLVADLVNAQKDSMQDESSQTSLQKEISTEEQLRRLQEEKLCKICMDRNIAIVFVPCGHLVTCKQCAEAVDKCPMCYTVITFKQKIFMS

[3] = target: T2, E3 ubiquitin-protein ligase XIAP; experiment: XIAP antagonists, biochemical, IAP family, fluorescence polarization (AID 1018); type: functional
[4] = target: T3, RNA-binding protein pos-1 (Caenorhabditis elegans, UniProt G5EF15); experiment: inhibitors of POS-1/mex-3 RNA binding, dose response, biochemical, fluorescence polarization (AID 1964);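 note: purified POS-1 fused to maltose binding protein made in E. coli; potency of compounds blocking POS-1 binding to fluorescent RNA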
T3 sequence (G5EF15 whole entry): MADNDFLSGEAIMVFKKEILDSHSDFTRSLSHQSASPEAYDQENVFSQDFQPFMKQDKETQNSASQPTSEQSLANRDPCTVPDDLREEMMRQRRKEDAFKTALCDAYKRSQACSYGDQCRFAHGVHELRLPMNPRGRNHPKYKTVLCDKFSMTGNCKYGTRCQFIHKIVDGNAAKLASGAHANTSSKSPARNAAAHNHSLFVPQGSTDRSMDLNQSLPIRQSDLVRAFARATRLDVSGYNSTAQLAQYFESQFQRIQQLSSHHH

[5] = target: T4, Zinc finger protein mex-5 (Caenorhabditis elegans, UniProt Q9XUB2); experiment: MEX-5/TCR-2 RNA interaction inhibitors, dose response, biochemical, C. elegans, fluorescence polarization (AID 1960)
T4 sequence (Q9XUB2 whole entry): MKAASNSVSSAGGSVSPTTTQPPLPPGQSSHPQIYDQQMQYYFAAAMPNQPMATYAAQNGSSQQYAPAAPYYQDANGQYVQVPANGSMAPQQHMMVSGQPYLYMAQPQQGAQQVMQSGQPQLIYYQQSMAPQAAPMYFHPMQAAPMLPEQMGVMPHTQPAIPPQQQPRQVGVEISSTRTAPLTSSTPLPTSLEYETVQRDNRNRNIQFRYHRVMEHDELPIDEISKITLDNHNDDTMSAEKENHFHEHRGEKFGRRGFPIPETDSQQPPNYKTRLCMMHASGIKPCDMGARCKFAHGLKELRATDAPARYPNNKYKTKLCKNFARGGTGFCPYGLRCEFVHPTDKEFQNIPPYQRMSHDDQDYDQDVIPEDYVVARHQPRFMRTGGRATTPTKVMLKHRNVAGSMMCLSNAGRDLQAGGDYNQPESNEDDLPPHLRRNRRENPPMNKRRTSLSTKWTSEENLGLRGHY

Trypsin = Trypsin (Sus scrofa, UniProt P00761); experiment: porcine trypsin inhibitors, dose response, selectivity assay for Rce1 protease inhibitor project, biochemical, quenched peptide fluorescence, cherry-pick (AID 488789)
Sequence of Trypsin (P00761 whole entry): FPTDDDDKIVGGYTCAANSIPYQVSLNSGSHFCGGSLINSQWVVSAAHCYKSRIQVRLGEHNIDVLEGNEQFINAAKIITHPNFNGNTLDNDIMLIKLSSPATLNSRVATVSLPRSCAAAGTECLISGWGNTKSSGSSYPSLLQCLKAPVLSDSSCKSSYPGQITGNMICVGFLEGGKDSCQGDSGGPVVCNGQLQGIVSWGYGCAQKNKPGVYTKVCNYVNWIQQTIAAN

CAAX prenyl protease 2 [6] = target: T5, CAAX prenyl protease 2 (Saccharomyces cerevisiae S288c, UniProt Q03530); type: biochemical
T5 sequence (Q03530 whole entry): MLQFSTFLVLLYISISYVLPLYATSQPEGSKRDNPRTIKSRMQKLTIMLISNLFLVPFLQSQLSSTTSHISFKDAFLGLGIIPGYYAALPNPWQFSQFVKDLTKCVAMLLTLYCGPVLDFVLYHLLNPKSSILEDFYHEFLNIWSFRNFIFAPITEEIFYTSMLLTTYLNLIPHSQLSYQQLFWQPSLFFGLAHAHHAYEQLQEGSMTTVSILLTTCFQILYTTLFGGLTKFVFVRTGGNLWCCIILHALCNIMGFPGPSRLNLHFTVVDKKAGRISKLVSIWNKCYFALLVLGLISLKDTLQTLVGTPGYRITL

CAAX prenyl protease 2 [7] = target: T6, CAAX prenyl protease 2 (Homo sapiens, UniProt Q9Y256); experiment: human Rce1 protease inhibitors, dose response, biochemical, yeast membranes, quenched-peptide fluorescence, cherry-pick (AID 588849)
T6 sequence (Q9Y256 whole entry): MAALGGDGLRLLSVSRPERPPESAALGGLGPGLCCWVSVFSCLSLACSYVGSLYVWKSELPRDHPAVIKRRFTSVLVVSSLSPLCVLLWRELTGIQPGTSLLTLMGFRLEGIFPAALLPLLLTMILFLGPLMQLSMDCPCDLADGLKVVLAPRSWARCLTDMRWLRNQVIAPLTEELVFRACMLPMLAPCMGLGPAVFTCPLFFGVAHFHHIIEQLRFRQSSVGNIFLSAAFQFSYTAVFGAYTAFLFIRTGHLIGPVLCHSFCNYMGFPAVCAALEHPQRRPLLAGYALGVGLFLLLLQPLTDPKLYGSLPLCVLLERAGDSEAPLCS

Hexokinase HKDC1 = target: T7, Hexokinase HKDC1 (Homo sapiens, UniProt Q2TB90); experiment: HKDC1 hexokinase inhibitors, dose response, biochemical, W721R variant (AID 504729); type: functional
T7 sequence (Q2TB90 whole entry): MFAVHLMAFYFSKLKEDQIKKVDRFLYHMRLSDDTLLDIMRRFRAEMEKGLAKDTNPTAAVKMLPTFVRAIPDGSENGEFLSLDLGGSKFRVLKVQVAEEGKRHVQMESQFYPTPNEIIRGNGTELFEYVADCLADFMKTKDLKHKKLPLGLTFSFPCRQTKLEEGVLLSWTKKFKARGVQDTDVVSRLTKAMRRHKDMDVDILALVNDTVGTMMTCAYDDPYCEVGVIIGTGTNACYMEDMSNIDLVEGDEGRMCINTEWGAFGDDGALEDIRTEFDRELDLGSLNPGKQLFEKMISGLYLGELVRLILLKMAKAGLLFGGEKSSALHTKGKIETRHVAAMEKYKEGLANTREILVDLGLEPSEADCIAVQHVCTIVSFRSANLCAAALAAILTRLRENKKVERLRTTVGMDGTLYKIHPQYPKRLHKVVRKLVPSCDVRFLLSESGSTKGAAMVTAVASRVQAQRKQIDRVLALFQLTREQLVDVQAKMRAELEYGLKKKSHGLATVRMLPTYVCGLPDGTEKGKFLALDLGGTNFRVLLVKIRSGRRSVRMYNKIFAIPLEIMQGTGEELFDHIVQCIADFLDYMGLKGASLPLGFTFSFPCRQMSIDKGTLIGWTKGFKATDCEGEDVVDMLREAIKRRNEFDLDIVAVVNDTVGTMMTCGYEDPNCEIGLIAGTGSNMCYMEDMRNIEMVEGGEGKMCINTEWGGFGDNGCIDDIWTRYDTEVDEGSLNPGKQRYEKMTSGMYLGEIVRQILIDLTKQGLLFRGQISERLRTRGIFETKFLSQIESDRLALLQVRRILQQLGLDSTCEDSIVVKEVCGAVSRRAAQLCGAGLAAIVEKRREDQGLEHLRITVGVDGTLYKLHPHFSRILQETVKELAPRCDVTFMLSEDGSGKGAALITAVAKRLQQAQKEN

INS1 = experiment: beta cell apoptosis inhibitors, cytokine rescue, dose response, luminescence, retest (AID 449756); type: functional, cell-based; settings: Rattus norvegicus;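 note: cell death triggered by IL-1 beta plus TNF-alpha plus IFN-gamma mixture; protective hits raise ATP signal compared with cytokine alone wells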
[8] = cytotoxicity in HPDE-C7 cells, cell-based, fluorescence, HTS (AID 430); type: functional; settings: Homo sapiens
[9] = cytotoxicity in KRAS-transformed pancreatic duct cells, primary screen, cell-based, fluorescence, HTS (AID 431); type: functional; settings: Homo sapiens;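 note: cell line used: HPDE-C7K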
cells = type: functional
[10] = THP-1 cell cytotoxicity, dose response, cytotoxicity control for non-replicating M. tuberculosis project (AID 489025); type: functional
[11] = cytotoxicity in HEK-293T NF-kB-Luc cells, dose response, cytotoxicity control for B/T-cell NF-kB inhibitor project, cell-based, uHTS hits (AID 489019); type: functional;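 note: IC50 reflects cytotoxicity as loss of cell viability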
Jurkat = experiment: antigen receptor-induced NF-kB inhibitors, dose response, Jurkat, luciferase reporter, luminescence, B- and T-cell (AID 489004); type: functional, cell-based; settings: Homo sapiens;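 note: NF-kB luciferase reporter Jurkat cells stimulated with PMA plus ionomycin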
[12] = Shn3 3'UTR reporter inhibitors, dose response, cell-based, Clone20 osteoblasts, firefly luciferase, cherry-picked (AID 624132); type: functional;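 note: firefly luciferase luminescence from reporter carrying the Shn3 3'UTR in osteoblasts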
[13] = cytotoxicity toward NIH3T3 fibroblasts, dose response, counter-screen, cell-based, ATP luminescence, mouse fibroblasts (AID 2010); type: functional;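 note: cells exposed to compound for about 90 hours before reading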
[14] = control 3'UTR Renilla luciferase suppression, dose response, counter-screen for Shn3 inhibitor project, cell-based, Clone20-Shn3RL, cherry-picked (AID 624133); type: functional
[15] = inhibitors of intracellular T. cruzi replication, confirmation, NIH3T3 host cells, beta-gal luminescence (AID 2044); type: functional, cell-based;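 note: intracellular parasites grown in NIH/3T3 mouse fibroblasts as host cells; luminescent beta-galactosidase reporter signal from transgenic T. cruzi replicating inside host cells; inhibitors lower the luminescence signal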
[16] = Luminescence Cell-Based Dose Response HTS to Identify Inhibitors of 5'UTR Stem-Loop Driven Prion Protein mRNA Translation in H4 Neuroglioblastoma Cells. [Related pubchem assays: 1827 (Project Summary), 1813 (Primary HTS)]; type: functional
[17] = inhibitors of SNCA 5'UTR-driven reporter translation, confirmation, H4 neuroglioma cells, luminescence (AID 1988); type: functional, cell-based
[18] = HepG2 cell cytotoxicity, dose response, cytotoxicity control for Shn3 inhibitor project, CellTiter-Glo, cherry-picked (AID 624134); type: functional, cell-based
[19] = inhibitors of firefly luciferase expression or activity, dose response, H4 neuroglioma cells, luminescence (AID 1990); type: functional, cell-based

Compound: CC(=O)Nc1ccc(NC(=O)c2ccc(CN3CCc4ccccc4C3)cc2)cc1
- IC50 [1]: > 20 µM (inactive)
- IC50 (HEK293): > 20 µM (inactive)
- IC50 (Tumor necrosis factor): > 20 µM (inactive)

Compound: Cc1cc(O)n2nc(N)c(N=Nc3ccccc3)c2n1
- IC50 [2]: > 100 µM (inactive)
- IC50 [3]: > 100 µM (not active)
- EC50 [4]: 37.8 µM (active)
- EC50 [5]: 15.2 µM (active)

Compound: COc1ccccc1-c1coc2c(CN3CCOCC3)c(O)ccc2c1=O
- AC50 (Trypsin): 44.4 µM (active)
- AC50 (CAAX prenyl protease 2 [6]): 52.5 µM (active)
- AC50 (CAAX prenyl protease 2 [7]): 11.8 µM (active)

Compound: Cc1cc(C)n2nc(SCc3nnc(SCc4ccccc4C)s3)nc2n1
- IC50 (Hexokinase HKDC1): 5.17 µM (active)
- AC50 (INS1): 22.9 µM (active)

Compound: O=C(Oc1cccc2cccnc12)c1ccc2c(c1)OCCO2
- EC50 [8]: 5.8 µM (active)
- EC50 [9]: 7.02 µM (active)
- IC50 (cells): 3.9 µM (active)
- CC50 [10]: 22.8 µM (active)

Compound: C=CCn1cc(-c2ccccc2)cc(C#N)c1=O
- AC50 (Trypsin): 7.96 µM (active)
- AC50 (CAAX prenyl protease 2 [7]): 6.89 µM (active)

Compound: CCOC(=O)c1nc2cc3n(c(C)c-2c1C)C(C)C(CC)=C3C (configuration not stated)
- AC50 (Trypsin): 7.97 µM (active)
- AC50 (CAAX prenyl protease 2 [6]): 8.32 µM (active)
- AC50 (CAAX prenyl protease 2 [7]): 8.45 µM (active)

Compound: C=C1C(O)[C@@H]2O[C@]3(CC[C@H](/C=C/C(C)[C@@H]4CC(C)=CC5(O[C@H](C[C@@](C)(O)C(=O)O)CCC5O)O4)O3)CC[C@H]2O[C@@H]1C(O)CC(C)[C@H]1OC2(CCCCO2)CCC1C (some centres not stated)
- IC50 [11]: > 80 µM (inactive)
- IC50 (Jurkat): 170 nM (active)
- AC50 (INS1): < 0.195 µM (active)

Compound: C=C(C)C1CC=C(C)/C(=N/NC(=O)CNc2ccc(C)cc2C)C1 (configuration not stated)
- IC50 [2]: > 100 µM (inactive)
- IC50 [3]: > 100 µM (not active)

Compound: c1ccc(CCNc2ccnc3cc4ccccc4cc23)cc1
- AC50 (Trypsin): 11.2 µM (active)
- AC50 [12]: 1.62 µM (active)
- AC50 (CAAX prenyl protease 2 [6]): 12.8 µM (active)
- EC50 [13]: > 30 µM (not active)
- AC50 [14]: 3.45 µM (active)
- EC50 [15]: 1.68 µM (active)
- EC50 [16]: 17.3 µM (active)
- EC50 [17]: 7.98 µM (active)
- AC50 (CAAX prenyl protease 2 [7]): 94 µM (active)
- AC50 [18]: 8.78 µM (active)
- EC50 [19]: > 120 µM (not active)
